Data taken from patent US10239843B2 (CANCER RESEARCH TECHNOLOGY LIMITED, priority 2014, dated 2019).

What follows are compounds tested against Human Full Length PARG (Homo sapiens (Human), UniProt Q86W56) (assay: PARG enzyme assay (TR-FRET)). Conditions: read-out: PARG Biochem IC50.
Format: biochemical

Human Full Length PARG, sequence (Q86W56 whole entry): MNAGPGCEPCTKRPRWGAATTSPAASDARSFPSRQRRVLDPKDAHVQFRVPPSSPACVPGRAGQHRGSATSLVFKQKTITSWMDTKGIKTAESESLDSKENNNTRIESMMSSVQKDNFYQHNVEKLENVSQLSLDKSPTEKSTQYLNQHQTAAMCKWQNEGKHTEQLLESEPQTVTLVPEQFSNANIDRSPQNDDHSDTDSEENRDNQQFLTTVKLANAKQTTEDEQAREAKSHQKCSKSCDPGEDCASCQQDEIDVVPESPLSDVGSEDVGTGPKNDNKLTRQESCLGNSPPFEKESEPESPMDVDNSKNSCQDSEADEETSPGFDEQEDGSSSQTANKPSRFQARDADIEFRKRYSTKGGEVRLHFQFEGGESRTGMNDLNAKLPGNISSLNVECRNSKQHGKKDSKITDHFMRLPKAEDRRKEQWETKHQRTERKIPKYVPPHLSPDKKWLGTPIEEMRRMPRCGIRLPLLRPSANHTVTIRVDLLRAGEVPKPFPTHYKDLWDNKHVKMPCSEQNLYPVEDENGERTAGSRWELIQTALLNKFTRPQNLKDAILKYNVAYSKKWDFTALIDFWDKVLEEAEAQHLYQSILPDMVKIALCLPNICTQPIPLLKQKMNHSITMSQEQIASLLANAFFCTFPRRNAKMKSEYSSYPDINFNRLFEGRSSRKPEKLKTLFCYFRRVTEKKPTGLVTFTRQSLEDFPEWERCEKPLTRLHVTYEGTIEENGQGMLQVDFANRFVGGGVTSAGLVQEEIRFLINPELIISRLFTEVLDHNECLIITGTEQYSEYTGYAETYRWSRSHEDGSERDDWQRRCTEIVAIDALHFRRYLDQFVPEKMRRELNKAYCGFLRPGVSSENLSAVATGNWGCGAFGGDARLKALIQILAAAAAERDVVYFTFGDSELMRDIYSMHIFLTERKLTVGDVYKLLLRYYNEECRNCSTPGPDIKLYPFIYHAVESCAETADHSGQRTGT

Row | SMILES | IC50 [nM]
1 | Cn1c(=O)n(Cc2nnc(C(F)(F)F)o2)c(=O)c2cc(S(=O)(=O)NC3(C)CC3)ccc21 [Example 501, 1-Methyl-N-(1-methylcyclopropyl)-2,4-dioxo-3-[[5-(trifluoromethyl)-1,3,4-oxadiazol-2-yl]methyl]quinazoline-6-sulfonamide] | 1610
2 | Cn1c(=O)n(CC(=O)c2ccc(C#N)cc2)c(=O)c2cc(S(=O)(=O)NC3(C)CC3)ccc21 [Example 531, 3-[2-(4-Cyanophenyl)-2-oxo-ethyl]-1-methyl-N-(1-methylcyclopropyl)-2,4-dioxo-quinazoline-6-sulfonamide] | 3270
3 | Cn1c(=O)n(CC(=O)c2ccccc2)c(=O)c2cc(S(=O)(=O)NC3(C)CC3)ccc21 [Example 530, 1-Methyl-N-(1-methylcyclopropyl)-2,4-dioxo-3-phenacyl-quinazoline-6-sulfonamide] | 1610
4 | COCCn1c(=O)n(Cc2cc(C)no2)c(=O)c2cc(S(=O)(=O)NC3(CF)CC3)ccc21 [Example 527, N-[1-(Fluoromethyl)cyclopropyl]-1-(2-methoxyethyl)-3-[(3-methylisoxazol-5-yl)methyl]-2,4-dioxo-quinazoline-6-sulfonamide] | 208

More lines, now with the values ahead:

Row | IC50 [nM] | SMILES
5 | 3790 | Cn1c(=O)n(Cc2cnc[nH]2)c(=O)c2cc(S(=O)(=O)NC3(C)CC3)ccc21 [Example 505, 3-(1H-Imidazol-4-ylmethyl)-1-methyl-N-(1-methylcyclopropyl)-2,4-dioxo-quinazoline-6-sulfonamide]
6 | 2290 | Cn1c(=O)n(Cc2ccns2)c(=O)c2cc(S(=O)(=O)NC3(C)CC3)ccc21 [Example 510, 3-(Isothiazol-5-ylmethyl)-1-methyl-N-(1-methylcyclopropyl)-2,4-dioxo-quinazoline-6-sulfonamide]
7 | 4130 | CC(C)n1cc(Cn2c(=O)c3cc(S(=O)(=O)NC4(C)CC4)ccc3n(C)c2=O)cn1 [Example 507, 3-[(1-Isopropylpyrazol-4-yl)methyl]-1-methyl-N-(1-methylcyclopropyl)-2,4-dioxo-quinazoline-6-sulfonamide]
8 | 2060 | Cc1nonc1Cn1c(=O)c2cc(S(=O)(=O)NC3(C)CC3)ccc2n(C)c1=O [Example 511, 1-Methyl-N-(1-methylcyclopropyl)-3-[(4-methyl-1,2,5-oxadiazol-3-yl)methyl]-2,4-dioxo-quinazoline-6-sulfonamide]

Same assay, conditions: read-out: PARG Biochem IC50 Geomean

Row | SMILES | IC50 [nM]
9 | CCOC(=O)C(F)n1c(=O)n(Cc2cc(C)no2)c(=O)c2cc(S(=O)(=O)NC3(C)CC3)ccc21 (stereo not drawn) [Example 335] | 1050
10 | Cn1c(=O)c(=O)n(Cc2ccc(F)cc2)c2ccc(S(=O)(=O)NC3(C)CC3)cc21 [Example 130, 1-[(4-Fluorophenyl)methyl]-4-methyl-N-(1-methylcyclopropyl)-2,3-dioxo-quinoxaline-6-sulfonamide] | 3360
11 | Cn1c(=O)c2cc(S(=O)(=O)NC3(C)CC3)ccc2n(Cc2cccnc2)c1=O [Example 83] | 1330
12 | Cn1c(=O)c2cc(S(=O)(=O)NC3(C)CC3)ccc2n(Cc2ccccn2)c1=O [Example 82] | 5770
13 | Cc1cc(Cn2c(=O)c3cc(S(=O)(=O)NC4(C)CC4)ccc3n(CCN3CCCCC3)c2=O)on1 [Example 278] | 526
14 | Cn1c(=O)n(CC(=O)N2CCOCC2)c(=O)c2cc(S(=O)(=O)NC3(C)CC3)ccc21 [Example 182] | 4410
15 | Cc1ccccc1Cn1c(=O)n(C)c(=O)c2cc(S(=O)(=O)NC3(C)CC3)ccc21 [Example 56] | 3340
16 | Cn1c(=O)c2cc(S(=O)(=O)NC3(C)CC3)ccc2n(Cc2cccc(C#N)c2)c1=O [Example 69] | 1140
17 | Cn1c(=O)c2cc(S(=O)(=O)NC3(C)CC3)ccc2n(Cc2noc(C(N)=O)n2)c1=O [Example 95] | 758
18 | Cn1cc(-c2ccc(F)cc2)c2ccc(S(=O)(=O)NC3(C)CC3)cc2c1=O [Example 255, 4-(4-Fluorophenyl)-2-methyl-N-(1-methylcyclopropyl)-1-oxo-isoquinoline-7-sulfonamide] | 8520
19 | Cc1cc(Cn2nc(CC3CCCCC3)c3ccc(S(=O)(=O)NC4(C)CC4)cc3c2=O)on1 [Example 314] | 1370
20 | Cn1c(=O)n(CC(=O)N2CCC[C@H]2C(N)=O)c(=O)c2cc(S(=O)(=O)NC3(C)CC3)ccc21 [Example 86] | 5470
21 | Cn1c(=O)c2cc(S(=O)(=O)NC3(C)CC3)ccc2n(C)c1=O [Example 2] | 4740
22 | Cn1c(=O)n(Cc2nc3ccccc3[nH]2)c(=O)c2cc(S(=O)(=O)NC3(C)CC3)ccc21 [Example 112] | 5710
23 | Cc1cc(Cn2c(=O)c3cc(S(=O)(=O)NC4(C)CC4)ccc3n(CCN3CCCC3)c2=O)on1 [Example 248] | 521
24 | Cn1c(=O)c2cc(S(=O)(=O)NC3(C)CC3)ccc2n(CC2CCCCO2)c1=O (stereo not drawn) [Example 38] | 1550
25 | Cc1nc2ccc(S(=O)(=O)NC3(C)CC3)cc2c(=O)[nH]1 [Example 52] | 6960
26 | Cn1c(=O)c2cc(S(=O)(=O)NC3(C)CC3)ccc2n(CC#N)c1=O [Example 175] | 4410
27 | Cn1nc(Cl)c2ccc(S(=O)(=O)NC3(C)CC3)cc2c1=O [Example 227, 1-Chloro-3-methyl-N-(1-methylcyclopropyl)-4-oxo-phthalazine-6-sulfonamide] | 5140
28 | CC1(NS(=O)(=O)c2ccc3nc(C4CC4)[nH]c(=O)c3c2)CC1 [Example 54] | 2420
29 | Cc1cc(Cn2cc(Cc3ccc(F)cc3)c3ccc(S(=O)(=O)NC4(C)CC4)cc3c2=O)on1 [Example 322, 4-[(4-Fluorophenyl)methyl]-N-(1-methylcyclopropyl)-2-[(3-methylisoxazol-5-yl)methyl]-1-oxo-isoquinoline-7-sulfonamide] | 2100
30 | Cc1cc(Cn2c(=O)[nH]c3ccc(S(=O)(=O)NC4(C)CC4)cc3c2=O)on1 [Example 221, N-(1-methylcyclopropyl)-3-[(3-isoxazol-5-yl)methyl]-2,4-dioxo-1H-quinazoline-6-sulfonamide] | 649
31 | C#CCn1c(=O)c2cc(S(=O)(=O)NC3(C)CC3)ccc2n(C)c1=O [Example 47] | 2970

The remaining lines, values ahead:

Row | IC50 [nM] | SMILES
32 | 560 | C#CCn1cc(Cn2c(=O)c3cc(S(=O)(=O)NC4(C)CC4)ccc3n(C)c2=O)cn1 [Example 216]
33 | 1140 | Cn1c(=O)n(CC#N)c(=O)c2cc(S(=O)(=O)NC3(C)CC3)ccc21 [Example 31]
34 | 5190 | Cc1cc(Cn2c(=O)c3cc(S(=O)(=O)NC4(C)CC4)ccc3n(C)c2=O)no1 [Example 103]
35 | 3220 | Cc1cc(Cn2c(=O)c3cc(S(=O)(=O)NC4(C)CC4)ccc3n(C)c2=O)n[nH]1 [Example 195]
36 | 1370 | COc1ccc(Cn2cc(Cn3c(=O)c4cc(S(=O)(=O)NC5(C)CC5)ccc4n(C)c3=O)cn2)cc1 [Example 212]
37 | 877 | Cc1nnsc1Cn1c(=O)c2cc(S(=O)(=O)NC3(C)CC3)ccc2n(C)c1=O [Example 191]
38 | 3310 | Cn1cncc1Cn1c(=O)c2cc(S(=O)(=O)NC3(C)CC3)ccc2n(C)c1=O [Example 154]
39 | 1180 | Cn1c(=O)n(Cc2ccno2)c(=O)c2cc(S(=O)(=O)NC3(C)CC3)ccc21 [Example 226]
40 | 2420 | Cc1cc(Cn2c(=O)c3cc(S(=O)(=O)NC4(C)CC4)ccc3n(C)c2=O)n(C)n1 [Example 123]
41 | 7800 | Cn1c(=O)n(Cc2cnccn2)c(=O)c2cc(S(=O)(=O)NC3(C)CC3)ccc21 [Example 108]
42 | 5890 | Cn1c(=O)n(Cc2ccc(C(N)=O)cc2)c(=O)c2cc(S(=O)(=O)NC3(C)CC3)ccc21 [Example 89]
